Test results taken from patent US8735398B2 (Bristol-Myers Squibb Company, priority 2009, dated 2014).
Read-outs that look alike come from different tables or passages of the source.

Tested on: HCV 1b genotype
Experiment: HCV replicon assay (HCV-neo replicon cells, wild-type)
Format: cell-based, Hepatitis C virus
Conditions: HCV 1b genotype replicon
Procedure, shortened: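 HCV-neo replicon cells (wild-type) and replicon cells carrying NS5A resistance substitutions were treated with compounds; assay per O'Boyle et al. 2005, with luciferase-reporter read-out variants also used.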

[1] = Hepatitis C virus, class symbol, read-out: EC50 Range against HCV 1b
[2] = class symbol, read-out: EC50 Range against HCV 1b
[3] = Hepatitis C virus, read-out: EC50 1b
[4] = Hepatitis C virus, class symbols, read-out: EC50 Range against HCV 1b

CC(=O)N[C@@H](C(=O)N1CCCC1C(=O)Nc1ccc(-c2cc(-c3ccc(NC(=O)C4CCCN4C(=O)[C@H](NC(C)=O)c4ccccc4)cc3)[nH]n2)cc1)c1ccccc1 (stereo partly drawn) [OL-42, N,N′-(1H-pyrazole-3,5-diyldi-4,1-phenylene)bis(1-((2R)-2-acetamido-2-phenylacetyl)-2-pyrrolidinecarboxamide)]
EC50 [1]: < 4.57 nM

C[C@@](O)(C(=O)N1CCC[C@H]1C(=O)Nc1ccc(-c2nc[nH]c2-c2ccc(NC(=O)[C@@H]3CCCN3C(=O)[C@@](C)(O)c3ccccc3)cc2)cc1)c1ccccc1 [JG-46, (2S,2′S)-N,N′-(1H-imidazole-4,5-diyldi-4,1-phenylene)bis(1-((2S)-2-hydroxy-2-phenylpropanoyl)-2-pyrrolidinecarboxamide)]
EC50 [1]: < 4.57 nM

O=C(Nc1ccc(-c2ccc(-c3ccc(NC(=O)[C@@H]4CCCN4C(=O)OCc4ccccc4)cc3)s2)cc1)[C@@H]1CCCN1C(=O)OCc1ccccc1 [OL-23, (2S,2′S)-2,2′-[2,5-thienediylbis(4,1-phenyleneiminocarbonyl)]bis-1-pyrrolidinecarboxylic acid, bis(phenylmethyl) ester]
EC50 [1]: 4.57 to 99 nM

C[C@H](O)[C@@H](NC(=O)c1ccccc1)C(=O)N1CCC[C@H]1C(=O)Nc1ccc(-c2cnc(-c3ccc(NC(=O)[C@@H]4CCCN4C(=O)[C@H](NC(=O)c4ccccc4)[C@H](C)O)cc3)o2)cc1 [Example D-18, (R,S,2S,2′S)-N,N′-(4,4′-(oxazole-2,5-diyl)bis(4,1-phenylene))bis(1-((2R,3S)-2-benzamido-3-hydroxybutanoyl)pyrrolidine-2-carboxamide)]
EC50 [2]: 1000 to 10000 nM
EC50 (read-out: EC50 1b): 5960 nM

CC(C)(C)OC(=O)N1CCCC1(C)C(=O)N1CCC[C@H]1C(=O)Nc1ccc(-c2cnc(-c3ccc(NC(=O)[C@@H]4CCCN4C(=O)C4(C)CCCN4C(=O)OC(C)(C)C)cc3)o2)cc1 (stereo partly drawn) [Example D-30, di-tert-butyl 2,2′-(1,3-oxazole-2,5-diylbis(4,1-phenylenecarbamoyl(2S)-2,1-pyrrolidinediylcarbonyl))bis(2-methyl-1-pyrrolidinecarboxylate)]
EC50 [2]: 1000 to 10000 nM

O=C(Nc1ccc(-c2cc(-c3ccc(NC(=O)[C@@H]4C=CCN4C(=O)C4CCC4)cc3)[nH]n2)cc1)[C@@H]1C=CCN1C(=O)C1CCC1 [OL-38, (2S,2′S)-N,N′-(1H-pyrazole-3,5-diyldi-4,1-phenylene)bis(1-(cyclobutylcarbonyl)-2,5-dihydro-1H-pyrrole-2-carboxamide)]
EC50 [1]: 1000 to 10000 nM
EC50 [3]: 10000 nM

COC(C(=O)N[C@@H](C)C(=O)Nc1ccc(-c2nnc(-c3ccc(NC(=O)[C@H](C)NC(=O)C(OC)c4ccccc4)cc3)o2)cc1)c1ccccc1 (stereo partly drawn) [RK-19, (2S,2′S)-N,N′-(1,3,4-oxadiazole-2,5-diyldi-4,1-phenylene)bis(2-((methoxy(phenyl)acetyl)amino)propanamide)]
EC50 [1]: 100 to 999 nM

O=C(Nc1ccc(-c2ccc(-c3ccc(NC(=O)[C@@H]4CCCN4C(=O)OCc4ccccc4)cc3)o2)cc1)[C@@H]1CCCN1C(=O)OCc1ccccc1 [JG-54, dibenzyl (2S,2′S)-2,2′-(2,5-furandiylbis(4,1-phenylenecarbamoyl))di(1-pyrrolidinecarboxylate)]
EC50 [1]: 100 to 999 nM

COc1ccc(C(=O)N2CCC[C@H]2C(=O)Nc2ccc(-c3cnc(-c4ccc(NC(=O)[C@@H]5CCCN5C(=O)c5ccc(OC)cc5)cc4)o3)cc2)cc1 [XY-29, (2S,2′S)-N,N′-(1,3-oxazole-2,5-diyldi-4,1-phenylene)bis(1-(4-methoxybenzoyl)-2-pyrrolidinecarboxamide)]
EC50 [4]: 100 to 999 nM

CC(C)(C)OC(=O)N1CCCC1C(=O)N1CCCC1C(=O)Nc1ccc(-c2cnc(-c3ccc(NC(=O)C4CCCN4C(=O)C4CCCN4C(=O)OC(C)(C)C)cc3)o2)cc1 [Example D-28, di-tert-butyl (2R,2′R)-2,2′-(1,3-oxazole-2,5-diylbis(4,1-phenylenecarbamoyl(2S)-2,1-pyrrolidinediylcarbonyl))di(1-pyrrolidinecarboxylate)]
EC50 [2]: 1000 to 10000 nM

C[C@](O)(C(=O)N1CCC[C@H]1C(=O)Nc1ccc(-c2nnc(-c3ccc(NC(=O)[C@@H]4CCCN4C(=O)[C@](C)(O)c4ccccc4)cc3)o2)cc1)c1ccccc1 [RK-28, (2S,2′S)-N,N′-(1,3,4-oxadiazole-2,5-diyldi-4,1-phenylene)bis(1-((2R)-2-hydroxy-2-phenylpropanoyl)-2-pyrrolidinecarboxamide)]
EC50 [1]: < 4.57 nM
EC50 [3]: 3 nM

CC(=O)N1CCC[C@H]1C(=O)Nc1ccc(-c2cnc(-c3ccc(NC(=O)C4CCN(C(=O)OCc5ccccc5)C4)cc3)o2)cc1 (stereo partly drawn) [MS-4, benzyl 3-((4-(5-(4-((1-acetyl-L-prolyl)amino)phenyl)-1,3-oxazol-2-yl)phenyl)carbamoyl)-1-pyrrolidinecarboxylate]
EC50 [1]: 100 to 999 nM
EC50 [3]: 901 nM

O=C(Nc1ccc(-c2cnc(-c3ccc(NC(=O)[C@@H]4CCCN4C(=O)C4CCCCC4)cc3)o2)cc1)[C@@H]1CCCN1C(=O)C1CCCCC1 [XY-15, (2S,2′S)-N,N′-(1,3-oxazole-2,5-diyldi-4,1-phenylene)bis(1-(cyclohexylcarbonyl)-2-pyrrolidinecarboxamide)]
EC50 [4]: 100 to 999 nM

C[C@H](NC(=O)c1cc(Cl)cc2ccccc12)C(=O)Nc1ccc(-c2cc(-c3ccc(NC(=O)[C@H](C)NC(=O)c4cc(Cl)cc5ccccc45)cc3)[nH]n2)cc1 [OL-47, N,N′-(1H-pyrazole-3,5-diylbis(4,1-phenyleneimino((2S)-1-oxo-1,2-propanediyl)))bis(3-chloro-1-naphthamide)]
EC50 [1]: 4.57 to 99 nM

O=C(Nc1ccc(-c2nnc(-c3ccc(NC(=O)[C@@H]4CCCN4C(=O)[C@H]4CCCO4)cc3)o2)cc1)[C@@H]1CCCN1C(=O)[C@H]1CCCO1 [RK-15, (2S,2′S)-N,N′-(1,3,4-oxadiazole-2,5-diyldi-4,1-phenylene)bis(1-((2R)-tetrahydro-2-furanylcarbonyl)-2-pyrrolidinecarboxamide)]
EC50 [1]: 1000 to 10000 nM

CC(C)n1c(=O)n(CC(=O)N2CCC[C@H]2C(=O)Nc2ccc(-c3cnc(-c4ccc(NC(=O)[C@@H]5CCCN5C(=O)Cn5c(=O)n(C(C)C)c6cc(F)c(F)cc65)cc4)o3)cc2)c2cc(F)c(F)cc21 [Example D-9, (2S,2′S)-N,N′-(4,4′-(oxazole-2,5-diyl)bis(4,1-phenylene))bis(1-(2-(5,6-difluoro-3-isopropyl-2-oxo-2,3-dihydro-1H-benzo[d]imidazol-1-yl)acetyl)pyrrolidine-2-carboxamide)]
EC50 [2]: 1000 to 10000 nM
EC50 (read-out: EC50 1b): 3330 nM

O=C(Nc1ccc(-c2cnc(-c3ccc(NC(=O)[C@@H]4CCCN4C(=O)C(O)c4cccs4)cc3)o2)cc1)[C@@H]1CCCN1C(=O)C(O)c1cccs1 (stereo partly drawn) [JR-6, (2S,2′S)-N,N′-(2,5-oxazolediyldi-4,1-phenylene)bis[1-(hydroxy-2-thienylacetyl)-2-pyrrolidinecarboxamide]]
EC50 [4]: < 4.57 nM
EC50 [3]: < 5 nM

O=C(Nc1ccc(-c2nc[nH]c2-c2ccc(NC(=O)[C@@H]3CCCN3C(=O)[C@@H](O)c3ccccc3)cc2)cc1)[C@@H]1CCCN1C(=O)[C@@H](O)c1ccccc1 [JG-44, (2S,2′S)-N,N′-(1H-imidazole-4,5-diyldi-4,1-phenylene)bis(1-((2S)-2-hydroxy-2-phenylacetyl)-2-pyrrolidinecarboxamide)]
EC50 [1]: 100 to 999 nM

CC(C)(CCl)C(=O)N1CCC[C@H]1C(=O)Nc1ccc(-c2cnc(-c3ccc(NC(=O)[C@@H]4CCCN4C(=O)C(C)(C)CCl)cc3)o2)cc1 [XY-17, (2S,2′S)-N,N′-(1,3-oxazole-2,5-diyldi-4,1-phenylene)bis(1-(3-chloro-2,2-dimethylpropanoyl)-2-pyrrolidinecarboxamide)]
EC50 [4]: 100 to 999 nM

O=C(Nc1ccc(-c2cnc(-c3ccc(NC(=O)[C@@H]4CCCN4C(=O)C4CSC5CCC(=O)N54)cc3)o2)cc1)[C@@H]1CCCN1C(=O)C1CSC2CCC(=O)N21 (stereo partly drawn) [JR-17, (2S,2′S)-N,N′-(2,5-oxazolediyldi-4,1-phenylene)bis[1-[(hexahydro-5-oxopyrrolo[2,1-b]thiazol-3-yl)carbonyl]-2-pyrrolidinecarboxamide]]
EC50 [4]: 1000 to 10000 nM

COc1cccc2c(C(=O)N3CCC[C@H]3C(=O)Nc3ccc(-c4cc(-c5ccc(NC(=O)[C@@H]6CCCN6C(=O)c6nc(Cl)cc7c(OC)cccc67)cc5)[nH]n4)cc3)nc(Cl)cc12 [OL-41, (2S,2′S)-N,N′-(1H-pyrazole-3,5-diyldi-4,1-phenylene)bis(1-((3-chloro-5-methoxy-1-isoquinolinyl)carbonyl)-2-pyrrolidinecarboxamide)]
EC50 [1]: 4.57 to 99 nM

CN(C)[C@@H](C(=O)N1CCCC1(C)C(=O)N1CCC[C@H]1C(=O)Nc1ccc(-c2cnc(-c3ccc(NC(=O)[C@@H]4CCCN4C(=O)C4(C)CCCN4C(=O)[C@@H](c4ccccc4)N(C)C)cc3)o2)cc1)c1ccccc1 (stereo partly drawn) [Example D-41, (2S,2′S)-N,N′-(1,3-oxazole-2,5-diyldi-4,1-phenylene)bis(1-((1-((2R)-2-(dimethylamino)-2-phenylacetyl)-2-methyl-2-pyrrolidinyl)carbonyl)-2-pyrrolidinecarboxamide)]
EC50 [1]: 100 to 999 nM

CCCC(C)C(=O)N1CCC[C@H]1C(=O)Nc1ccc(-c2cnc(-c3ccc(NC(=O)[C@@H]4CCCN4C(=O)C(C)CCC)cc3)o2)cc1 (stereo partly drawn) [XY-9, (2S,2′S)-N,N′-(1,3-oxazole-2,5-diyldi-4,1-phenylene)bis(1-(2-methylpentanoyl)-2-pyrrolidinecarboxamide)]
EC50 [4]: 100 to 999 nM

CC(=O)N[C@@H](C(=O)N1[C@H](C(=O)Nc2ccc(-c3cnc(-c4ccc(NC(=O)[C@@H]5C[C@@H]6C[C@@H]6N5C(=O)[C@H](NC(C)=O)c5ccccc5)cc4)o3)cc2)C[C@@H]2C[C@@H]21)c1ccccc1
EC50 [1]: 4.57 to 99 nM
EC50 [3]: < 5 nM

O=C(Nc1ccc(-c2cnc(-c3ccc(NC(=O)[C@@H]4CCCN4C(=O)CC4CC4)cc3)o2)cc1)[C@@H]1CCCN1C(=O)CC1CC1 [XY-24, (2S,2′S)-N,N′-(1,3-oxazole-2,5-diyldi-4,1-phenylene)bis(1-(cyclopropylacetyl)-2-pyrrolidinecarboxamide)]
EC50 [4]: 100 to 999 nM
